From patent US20240182460A1, “ALLOSTERIC CHROMENONE INHIBITORS OF PHOSPHOINOSITIDE 3-KINASE (PI3K) FOR THE TREATMENT OF DISEASE” (PETRA PHARMA CORPORATION, priority 2022, published 2024)

Target: PI3Kα E545K (Homo sapiens, UniProt P42336, E545K)
Assay: PI3Kα E545K mutant in vitro cell based assay, MDA-MB-361 cells
Design: MDA-MB-361 (ATCC-HTB-27) cell line (PI3Kα E545K); host or cells: MDA-MB-361
Conditions: MDA-MB-361 cell line, 0% FBS, no insulin, 3 hours treatment
Text: PI3K-Alpha Kinase (PI3Kα) Activity: Wild-Type PI3Kα, H1047R Mutant PI3Kα, and E545K Mutant PI3Kα In Vitro Cell Based Assays and Determination of IC50 Values for Inhibitors
The MDA-MB-453 (ATCC-HTB-131) cell line (PI3Kα H1047R) and MCF-7 (ATCC-HTB-22) cell line (PI3Kα E545K), MDA-MB-361 (ATCC-HTB-27) cell line (PI3Kα E545K), and SKBR3 (ATCC-HTB-30) cell line (wild type PI3Kα) were obtained from the American Type Culture Collection (Manassas, VA). MDA-MB-453 cells were maintained in Dulbecco's Modified Eagle Media (DMEM, Gibco 12430) supplemented with 10% Fetal Bovine Serum, heat inactivated (FBS HI, Gibco 10082), 1× non-essential amino acids (NEAA, Gibco 11140), 1 mM sodium pyruvate (Gibco 11360) and 1× Anti-Anti (Gibco 15240). MCF-7 cells were maintained in Minimum Essential Media (MEM) (Gibco 11095) supplemented with 10% Fetal Bovine Serum, heat inactivated (FBS HI, Gibco 10082), 1× non-essential amino acids (NEAA, Gibco 11140), 1 mM sodium pyruvate (Gibco 11360), 1× Anti-Anti (Gibco 15240) and 10 μg/mL human insulin (Sigma I 9278). MDA-MB-361 cells were maintained in Dulbecco's Modified Eagle Media (DMEM, Gibco 12430) supplemented with 20% Fetal Bovine Serum, heat inactivated (FBS HI, Gibco 10082), 1× non-essential amino acids (NEAA, Gibco 11140), 1 mM sodium pyruvate (Gibco 11360) and 1× Anti-Anti (Gibco 15240). SKBR3 cells were maintained in McCoy's 5A (Gibco 16600) supplemented with 10% Fetal Bovine Serum, heat inactivated (FBS HI, Gibco 10082), and 1× Anti-Anti (Gibco 15240). Cultures were maintained in a humidified incubator at 37° C. under 5% CO2/95% air.
For compound testing in 0% FBS, MDA-MB-453, MCF-7 and SKBR3 cells were seeded at a density of 1.5×10^4, 1.0×10^4, and 1.0×10^4 cells, respectively, per well in white 384-well plates in 20 μl of Minimum Essential Media (MEM) assay media with 1×NEAA, 1 mM sodium pyruvate, and 1 μg/mL human insulin (Sigma 19278) (Assay Medium); while MDA-MB-361 cells were seeded at a density of 1.5×10^4 per well in white 384-well plates in 20 μl Assay Medium without insulin. After plating, cells were allowed to attach overnight. Compounds dissolved in 10 mM stock solutions in DMSO were serially diluted 1:3 in DMSO to generate a 10-point dilution series and plated using an acoustic liquid handler system (Echo 550 Series Liquid Handler, Labcyte). A 5× intermediate compound dilution plate in MEM with 1×NEAA and 1 mM sodium pyruvate (150 μM starting compound concentration in 1.5% DMSO) was then prepared. Five μl of the intermediate serially diluted compounds were added to the cell plate to final concentrations ranging from […] in 0.3% DMSO. 0.3% DMSO alone was used to establish the maximum (MAX) signal and GDC-0032 at a final concentration of 1 μM was used as a reference compound for the minimum (MIN) signal. After 3 hours treatment, the medium was removed, and the cells were lysed in 10 μL of 1× SureFire Lysis buffer with shaking for 10 minutes at room temperature. The Acceptor Mix (Reaction Buffer 1+Reaction Buffer 2+Activation Buffer+SureFire Ultra Acceptor Beads) was prepared by diluting Activation buffer 25-fold in combined Reaction Buffer 1 and Reaction Buffer 2.
The Acceptor beads were diluted 50-fold in the combined Reaction Buffers. Five μL of Acceptor Mix was added to each well, the plate was sealed and covered with foil and incubated for 1 hour at room temperature. The Donor Mix (dilution buffer+SureFire Ultra Donor Beads) was prepared by diluting Donor Beads 50-fold in dilution buffer. Five μL of the Donor Mix was added to each well and the plate sealed and covered with foil and incubated for 1-2 hours at room temperature in the dark. The plates were read on a Neo2 plate reader instrument from Biotek using standard AlphaLisa settings.
Compounds were tested in duplicate and the % inhibition at each compound concentration was used to generate two dose response curves. One IC50 was generated using average % inhibition at each compound concentration. […]

Sequence of PI3Kα E545K (P42336 whole entry E545K): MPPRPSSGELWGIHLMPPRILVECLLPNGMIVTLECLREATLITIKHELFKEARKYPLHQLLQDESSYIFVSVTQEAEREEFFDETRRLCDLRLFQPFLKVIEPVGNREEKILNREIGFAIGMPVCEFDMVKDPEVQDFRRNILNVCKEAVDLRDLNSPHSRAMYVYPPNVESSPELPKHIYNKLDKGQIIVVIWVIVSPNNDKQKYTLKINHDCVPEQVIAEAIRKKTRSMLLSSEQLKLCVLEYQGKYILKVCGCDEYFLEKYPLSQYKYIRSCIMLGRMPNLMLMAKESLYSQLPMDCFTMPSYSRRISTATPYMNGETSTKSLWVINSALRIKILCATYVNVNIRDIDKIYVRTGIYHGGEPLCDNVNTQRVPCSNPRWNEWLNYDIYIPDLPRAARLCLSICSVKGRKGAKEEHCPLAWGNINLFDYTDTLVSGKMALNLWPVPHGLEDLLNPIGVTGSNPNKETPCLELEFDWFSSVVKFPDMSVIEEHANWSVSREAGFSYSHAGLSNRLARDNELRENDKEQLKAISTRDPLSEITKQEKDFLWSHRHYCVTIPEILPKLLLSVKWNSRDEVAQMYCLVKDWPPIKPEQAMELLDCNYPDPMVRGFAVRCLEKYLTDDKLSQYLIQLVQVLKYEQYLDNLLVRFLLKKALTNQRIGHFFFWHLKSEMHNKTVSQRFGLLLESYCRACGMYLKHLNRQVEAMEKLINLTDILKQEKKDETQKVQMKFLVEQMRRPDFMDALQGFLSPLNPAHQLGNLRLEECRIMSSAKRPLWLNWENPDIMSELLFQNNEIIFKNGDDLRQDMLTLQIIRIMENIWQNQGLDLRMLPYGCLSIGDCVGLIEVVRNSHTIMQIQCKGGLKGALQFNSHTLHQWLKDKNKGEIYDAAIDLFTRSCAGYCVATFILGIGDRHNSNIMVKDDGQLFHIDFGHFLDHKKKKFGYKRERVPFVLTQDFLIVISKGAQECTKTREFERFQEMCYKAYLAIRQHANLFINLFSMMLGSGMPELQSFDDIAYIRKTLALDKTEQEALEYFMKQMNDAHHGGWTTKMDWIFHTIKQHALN
Sequence of PI3Kα E545K (P27986 whole entry partner): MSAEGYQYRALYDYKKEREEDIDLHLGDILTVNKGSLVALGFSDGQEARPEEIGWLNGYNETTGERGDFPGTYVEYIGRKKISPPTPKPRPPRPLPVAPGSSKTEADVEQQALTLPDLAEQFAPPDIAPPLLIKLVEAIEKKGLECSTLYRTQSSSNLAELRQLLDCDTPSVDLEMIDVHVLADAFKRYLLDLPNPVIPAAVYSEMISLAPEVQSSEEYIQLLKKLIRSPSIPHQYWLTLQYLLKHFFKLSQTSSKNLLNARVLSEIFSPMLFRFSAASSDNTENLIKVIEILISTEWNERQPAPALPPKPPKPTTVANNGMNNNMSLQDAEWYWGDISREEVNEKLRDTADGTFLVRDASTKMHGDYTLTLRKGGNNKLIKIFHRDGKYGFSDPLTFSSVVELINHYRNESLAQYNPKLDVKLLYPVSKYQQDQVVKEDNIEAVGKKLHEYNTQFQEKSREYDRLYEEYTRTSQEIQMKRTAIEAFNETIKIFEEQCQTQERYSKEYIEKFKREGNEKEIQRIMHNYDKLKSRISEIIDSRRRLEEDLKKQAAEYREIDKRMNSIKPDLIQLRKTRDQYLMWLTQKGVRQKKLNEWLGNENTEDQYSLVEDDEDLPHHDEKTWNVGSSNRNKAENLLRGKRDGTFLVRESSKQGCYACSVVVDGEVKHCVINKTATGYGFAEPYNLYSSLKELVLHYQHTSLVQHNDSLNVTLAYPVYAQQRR

IC50, < 500 nM:
Cc1cc([C@@H](C)Oc2cccnc2-c2ccccc2F)c2oc(-c3ccc(=O)[nH]c3)c(C)c(=O)c2c1 [Example 30A]
Cc1cc([C@@H](C)Oc2ccc(Cl)nc2C(N)=O)c2oc(-c3cnc4c(c3)OCO4)c(C)c(=O)c2c1 [Example 59A, 6-Chloro-3-[(1R)-1-[2-([1,3]dioxolo[4,5-b]pyridin-6-yl)-3,6-dimethyl-4-oxo-chromen-8-yl]ethoxy]pyridine-2-carboxamide]
Cc1cc([C@@H](C)Oc2ccc(Cl)nc2S(N)(=O)=O)c2oc(-c3cnc4c(c3)OCCO4)c(C)c(=O)c2c1 [Example 6B]
CONS(=O)(=O)c1nc(Cl)ccc1O[C@H](C)c1cc(C)cc2c(=O)c(C)c(-c3cnn(CC(C)(C)O)c3)oc12 [Example 121C, 6-Chloro-3-[(1R)-1-[2-[1-(2-hydroxy-2-methyl-propyl)pyrazol-4-yl]-3,6-dimethyl-4-oxo-chromen-8-yl]ethoxy]-N-methoxy-pyridine-2-sulfonamide]
Cc1cc([C@@H](C)Oc2ccc(Cl)nc2C(N)=O)c2oc(-c3ccc4nn(C5COC5)cc4c3)c(C)c(=O)c2c1 [Example 77C, 6-Chloro-3-[(1R)-1-[3,6-dimethyl-2-[2-(oxetan-3-yl)indazol-5-yl]-4-oxo-chromen-8-yl]ethoxy]pyridine-2-carboxamide]
Cc1cc([C@@H](C)Oc2ccc(Cl)nc2C(N)=O)c2oc(-c3cnn(C(F)F)c3)c(C)c(=O)c2c1 [Example 58A, 6-Chloro-3-[(1R)-1-[2-[1-(difluoromethyl)pyrazol-4-yl]-3,6-dimethyl-4-oxo-chromen-8-yl]ethoxy]pyridine-2-carboxamide]
Cc1cc([C@@H](C)Oc2cccnc2-c2ccccc2F)c2oc(-c3cc[nH]c(=O)c3)c(C)c(=O)c2c1 [Example 29A, 4-[8-[(1R)-1-[[2-(2-Fluorophenyl)-3-pyridyl]oxy]ethyl]-3,6-dimethyl-4-oxo-chromen-2-yl]-1H-pyridin-2-one]
Cc1cc([C@@H](C)Oc2ccc(Cl)nc2S(N)(=O)=O)c2oc(-c3ccccc3)c(C)c(=O)c2c1 [Example 13A, 6-Chloro-3-[(1R)-1-(3,6-dimethyl-4-oxo-2-phenyl-chromen-8-yl)ethoxy]pyridine-2-sulfonamide]
Cc1cc([C@@H](C)Oc2ccc(Cl)nc2C(N)=O)c2oc(-c3ccn4nc(C)cc4c3)c(C)c(=O)c2c1 [Example 76C, 6-Chloro-3-[(1R)-1-[3,6-dimethyl-2-(2-methylpyrazol[1,5-a]pyridin-5-yl)-4-oxo-chromen-8-yl]ethoxy]pyridine-2-carboxamide]
CCc1nc2ccc(-c3oc4c([C@@H](C)Oc5ccc(Cl)nc5C(N)=O)cc(C)cc4c(=O)c3C)cc2s1 [Example 83C, 6-Chloro-3-[(1R)-1-[2-(2-ethyl-1,3-benzothiazol-6-yl)-3,6-dimethyl-4-oxo-chromen-8-yl]ethoxy]pyridine-2-carboxamide]
Cc1cc([C@@H](C)Oc2ccc(Cl)nc2C)c2oc(-c3cnn(CCO)c3)c(C)c(=O)c2c1 [Example 72C, 8-[(1R)-1-[(6-Chloro-2-methyl-3-pyridyl)oxy]ethyl]-2-[1-(2-hydroxyethyl)pyrazol-4-yl]-3,6-dimethyl-chromen-4-one]
Cc1cc([C@@H](C)Oc2ccc(Cl)nc2S(N)(=O)=O)c2oc(-c3cnn4c3COCC4)c(C)c(=O)c2c1 [Example 3B, 6-Chloro-3-[(1R)-1-[2-(6,7-dihydro-4H-pyrazolo[5,1-c][1,4]oxazin-3-yl)-3,6-dimethyl-4-oxo-chromen-8-yl]ethoxy]pyridine-2-sulfonamide]
Cc1cc([C@@H](C)Oc2ccc(Cl)nc2S(N)(=O)=O)c2oc(-c3cnc(OC(C)C)nc3)c(C)c(=O)c2c1 [Example 23C, 6-Chloro-3-[(1R)-1-[2-(2-isopropoxypyrimidin-5-yl)-3,6-dimethyl-4-oxo-chromen-8-yl]ethoxy]pyridine-2-sulfonamide]
Cc1cc([C@@H](C)Oc2ccc(Cl)nc2C(N)=O)c2oc(-c3ccc4nn(C)c(C)c4c3)c(C)c(=O)c2c1 [Example 50C, 6-Chloro-3-[(1R)-1-[2-(2,3-dimethylindazol-5-yl)-3,6-dimethyl-4-oxo-chromen-8-yl]ethoxy]pyridine-2-carboxamide]
Cc1cc([C@@H](C)Oc2ccc(Cl)nc2C(N)=O)c2oc(-c3ccc4c(c3)OCCN4C)c(C)c(=O)c2c1 [Example 104A, 6-Chloro-3-[(1R)-1-[3,6-dimethyl-2-(4-methyl-2,3-dihydro-1,4-benzoxazin-7-yl)-4-oxo-chromen-8-yl]ethoxy]pyridine-2-carboxamide]
Cc1cc([C@@H](C)Oc2ccc(Cl)nc2NC(=O)CO)c2oc(-c3cnn(C)c3)c(C)c(=O)c2c1 [Example 27B, N-[6-Chloro-3-[(1R)-1-[3,6-dimethyl-2-(1-methylpyrazol-4-yl)-4-oxo-chromen-8-yl]ethoxy]-2-pyridyl]-2-hydroxy-acetamide]
Cc1cc([C@@H](C)Oc2ccc(Cl)nc2S(N)(=O)=O)c2oc(-c3cnc4c(c3)OCO4)c(C)c(=O)c2c1 [Example 15A, 6-Chloro-3-[(1R)-1-[2-([1,3]dioxolo[4,5-b]pyridin-6-yl)-3,6-dimethyl-4-oxo-chromen-8-yl]ethoxy]pyridine-2-sulfonamide]
Cc1cc([C@@H](C)Oc2ccc(Cl)nc2C(N)=O)c2oc(-c3ccc4nn(C)nc4c3)c(C)c(=O)c2c1 [Example 50A, 6-Chloro-3-[(1R)-1-[3,6-dimethyl-2-(2-methylbenzotriazol-5-yl)-4-oxo-chromen-8-yl]ethoxy]pyridine-2-carboxamide]
Cc1cc([C@@H](C)Oc2ccc(Cl)nc2S(N)(=O)=O)c2oc(-c3cnn(C)c3C)c(C)c(=O)c2c1 [Example 18C, 6-Chloro-3-[(1R)-1-[2-(1,5-dimethylpyrazol-4-yl)-3,6-dimethyl-4-oxo-chromen-8-yl]ethoxy]pyridine-2-sulfonamide]
Cc1cc([C@@H](C)Oc2ccc(Cl)nc2C(N)=O)c2oc(-c3ccc4cncn4c3)c(C)c(=O)c2c1 [Example 43C, 6-Chloro-3-[(1R)-1-(2-imidazo[1,5-a]pyridin-6-yl-3,6-dimethyl-4-oxo-chromen-8-yl)ethoxy]pyridine-2-carboxamide]
Cc1cc([C@@H](C)Oc2ccc(Cl)nc2C(N)=O)c2oc(-c3cnn4c3COCC4)c(C)c(=O)c2c1 [Example 40A, 6-Chloro-3-[(1R)-1-[2-(6,7-dihydro-4H-pyrazolo[5,1-c][1,4]oxazin-3-yl)-3,6-dimethyl-4-oxo-chromen-8-yl]ethoxy]pyridine-2-carboxamide]
Cc1cc([C@@H](C)Oc2ccccc2S(N)(=O)=O)c2oc(-c3ccccc3)c(C)c(=O)c2c1 [Example 102C, 2-[(1R)-1-(3,6-Dimethyl-4-oxo-2-phenyl-chromen-8-yl)ethoxy]benzenesulfonamide]
